Patent US10047051B2, “Substituted pyridines and method of use” (AbbVie S.á{acute over (.)}r.l., priority 2015, dated 2018)
pEC50: −log10 of the molar value.

What was measured:
[1] = molecular target: T1, CFTR ΔF508 mutant (Homo sapiens, UniProt P13569, DEL508-508); test: YFP-halide influx assay for the CFTR-ΔF508 mutation (CFBE41o- cells); format: cell-based; details: forskolin 10.67 μM; for pEC50: from (1−F/F0) vs concentration plot
T1 construct: expressed in transfected cells; host or cells: CFBE41o- cells, adenoviral transduction
Outline: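 CFBE41o- cells transduced with adenovirus expressing CFTR ΔF508 and halide-sensitive YFP H148Q/I152L/F47L, then held 24 h at 27° C or with a CFTR modulator 24 h at 37° C. Iodide-induced quench recorded 2 min; EC50 from (1−F/F0) at 36 s versus concentration.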

[2] = molecular target: T2, CFTR G551D mutant (Homo sapiens, UniProt P13569, G551D); test: YFP-halide influx assay for the CFTR-G551D mutation (HEK293 cells); format: cell-based; details: forskolin 10.67 μM
T2 construct: expressed in transfected cells; host or cells: HEK293 cells, reverse transfection with plasmids
Outline: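 HEK293 cells reverse-transfected with CFTR G551D and halide-sensitive YFP (H148Q/I152L/F47L), expressed 24 h at 37 °C. YFP fluorescence quenching recorded for 7 s after I⁻ injection. Response = 1−F/F0; EC50 derived from 1−F/F0 vs compound concentration.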

T1 sequence (P13569 with tags, fused parts or gaps DEL508-508): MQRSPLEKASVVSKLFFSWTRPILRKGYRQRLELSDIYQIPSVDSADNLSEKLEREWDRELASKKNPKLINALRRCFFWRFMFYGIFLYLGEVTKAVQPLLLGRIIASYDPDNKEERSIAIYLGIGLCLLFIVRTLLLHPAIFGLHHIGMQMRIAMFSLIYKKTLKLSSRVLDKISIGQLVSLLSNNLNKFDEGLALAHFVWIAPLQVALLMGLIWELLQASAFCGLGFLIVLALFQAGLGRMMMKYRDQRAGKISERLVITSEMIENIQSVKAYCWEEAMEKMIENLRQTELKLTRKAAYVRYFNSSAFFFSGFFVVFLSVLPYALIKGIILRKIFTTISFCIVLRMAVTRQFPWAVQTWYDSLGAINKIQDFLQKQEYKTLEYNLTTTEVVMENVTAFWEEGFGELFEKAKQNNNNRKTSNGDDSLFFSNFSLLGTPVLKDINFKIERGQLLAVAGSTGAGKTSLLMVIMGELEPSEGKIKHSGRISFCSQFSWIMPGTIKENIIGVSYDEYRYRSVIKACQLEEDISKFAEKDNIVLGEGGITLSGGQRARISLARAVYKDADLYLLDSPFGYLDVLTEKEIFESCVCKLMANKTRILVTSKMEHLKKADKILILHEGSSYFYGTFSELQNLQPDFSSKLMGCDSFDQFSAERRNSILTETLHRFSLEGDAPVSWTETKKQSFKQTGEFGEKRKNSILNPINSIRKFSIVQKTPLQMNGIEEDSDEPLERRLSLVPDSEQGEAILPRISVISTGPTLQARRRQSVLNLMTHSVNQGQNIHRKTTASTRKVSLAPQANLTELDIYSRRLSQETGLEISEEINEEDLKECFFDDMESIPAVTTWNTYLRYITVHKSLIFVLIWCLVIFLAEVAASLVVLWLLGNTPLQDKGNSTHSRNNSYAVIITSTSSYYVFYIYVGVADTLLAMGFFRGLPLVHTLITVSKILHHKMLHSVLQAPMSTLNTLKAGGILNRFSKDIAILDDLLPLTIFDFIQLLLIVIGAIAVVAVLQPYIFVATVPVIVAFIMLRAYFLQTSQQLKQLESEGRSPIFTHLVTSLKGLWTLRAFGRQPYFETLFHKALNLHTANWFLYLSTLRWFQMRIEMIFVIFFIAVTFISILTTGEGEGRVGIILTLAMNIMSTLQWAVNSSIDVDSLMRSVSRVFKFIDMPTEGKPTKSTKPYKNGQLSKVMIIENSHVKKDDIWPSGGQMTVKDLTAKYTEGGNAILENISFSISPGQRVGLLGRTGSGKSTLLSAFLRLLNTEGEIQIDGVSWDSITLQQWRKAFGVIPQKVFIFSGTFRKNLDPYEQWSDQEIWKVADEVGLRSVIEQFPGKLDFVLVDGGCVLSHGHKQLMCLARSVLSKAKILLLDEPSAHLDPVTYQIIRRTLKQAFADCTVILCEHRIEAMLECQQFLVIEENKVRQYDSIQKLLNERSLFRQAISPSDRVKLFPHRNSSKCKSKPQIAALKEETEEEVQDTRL
T2 sequence (P13569 whole entry G551D): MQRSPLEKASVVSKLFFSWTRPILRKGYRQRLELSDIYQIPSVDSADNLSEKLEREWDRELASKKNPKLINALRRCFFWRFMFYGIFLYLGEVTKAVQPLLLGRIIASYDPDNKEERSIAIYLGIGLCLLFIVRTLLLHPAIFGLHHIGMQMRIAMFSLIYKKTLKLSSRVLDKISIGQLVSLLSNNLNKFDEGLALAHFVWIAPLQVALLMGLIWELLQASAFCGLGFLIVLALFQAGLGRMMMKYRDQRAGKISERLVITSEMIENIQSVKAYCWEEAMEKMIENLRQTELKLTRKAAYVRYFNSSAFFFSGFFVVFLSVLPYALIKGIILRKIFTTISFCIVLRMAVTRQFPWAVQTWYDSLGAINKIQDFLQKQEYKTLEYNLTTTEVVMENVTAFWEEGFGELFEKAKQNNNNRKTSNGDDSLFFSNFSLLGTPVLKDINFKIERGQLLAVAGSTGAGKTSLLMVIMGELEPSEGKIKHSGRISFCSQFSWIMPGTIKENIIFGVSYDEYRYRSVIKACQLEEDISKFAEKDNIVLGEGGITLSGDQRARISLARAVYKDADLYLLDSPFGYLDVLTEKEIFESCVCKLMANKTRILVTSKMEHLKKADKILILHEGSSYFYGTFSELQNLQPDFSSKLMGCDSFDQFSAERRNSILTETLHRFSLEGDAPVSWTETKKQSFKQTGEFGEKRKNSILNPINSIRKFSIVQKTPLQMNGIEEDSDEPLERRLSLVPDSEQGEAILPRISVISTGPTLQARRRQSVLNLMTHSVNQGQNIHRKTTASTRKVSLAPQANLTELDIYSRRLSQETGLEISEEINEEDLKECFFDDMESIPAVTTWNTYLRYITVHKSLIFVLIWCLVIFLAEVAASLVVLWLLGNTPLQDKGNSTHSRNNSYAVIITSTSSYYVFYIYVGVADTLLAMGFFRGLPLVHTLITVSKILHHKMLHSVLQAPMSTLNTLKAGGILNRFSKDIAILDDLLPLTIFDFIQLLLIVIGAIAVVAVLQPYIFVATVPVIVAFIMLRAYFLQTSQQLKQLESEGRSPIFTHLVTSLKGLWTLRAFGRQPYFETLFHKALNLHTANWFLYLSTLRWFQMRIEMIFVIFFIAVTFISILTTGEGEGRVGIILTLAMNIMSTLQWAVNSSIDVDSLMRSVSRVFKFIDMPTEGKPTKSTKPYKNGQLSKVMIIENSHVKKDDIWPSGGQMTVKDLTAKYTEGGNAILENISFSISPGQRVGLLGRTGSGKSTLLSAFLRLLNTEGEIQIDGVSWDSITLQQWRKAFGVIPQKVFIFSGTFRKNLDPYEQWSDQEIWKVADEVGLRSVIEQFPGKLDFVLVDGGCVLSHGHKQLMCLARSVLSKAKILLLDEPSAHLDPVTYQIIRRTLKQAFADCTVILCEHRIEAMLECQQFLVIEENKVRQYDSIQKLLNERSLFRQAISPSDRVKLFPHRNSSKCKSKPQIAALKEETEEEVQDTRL

Compound	% Activation [1]	pEC50 [1]	% Activation [2]	pEC50 [2]
Nc1cc(S(=O)(=O)c2ccc(OC(F)(F)F)cc2)cnc1C(=O)N[C@@H]1CCOC1 [Compound 128, 3-amino-N-[(3R)-tetrahydrofuran-3-yl]-5-{[4-(trifluoromethoxy)phenyl]sulfonyl}pyridine-2-carboxamide]	95.0%	7.07	41.7%	< 5.00
CO[C@H]1C[C@H](NC(=O)c2ncc(S(=O)(=O)c3ccc(OC(F)(F)F)cc3)cc2N)C1 [Compound 120, 3-amino-N-(trans-3-methoxycyclobutyl)-5-{[4-(trifluoromethoxy)phenyl]sulfonyl}pyridine-2-carboxamide]	96.5%	7.11	54.0%	5.95
Nc1cc(S(=O)(=O)c2ccc(C(F)(F)F)cc2)cnc1C(=O)N1CC2(CCCOC2)C1 [Compound 295, (3-amino-5-{[4-(trifluoromethyl)phenyl]sulfonyl}pyridin-2-yl)(6-oxa-2-azaspiro[3.5]non-2-yl)methanone]	102.3%	7.29	92.7%	5.71
COCCOCC(O)CNC(=O)c1ncc(S(=O)(=O)c2ccc(C(F)(F)F)cc2)cc1N (stereo not shown) [Compound 221, 3-amino-N-[2-hydroxy-3-(2-methoxyethoxy)propyl]-5-{[4-(trifluoromethyl)phenyl]sulfonyl}pyridine-2-carboxamide]	101.7%	7.26	55.6%	5.74
Nc1cc(S(=O)(=O)c2ccc(OC(F)(F)F)cc2)cnc1C(=O)NCC1CCOCC1 [Compound 129, 3-amino-N-(tetrahydro-2H-pyran-4-ylmethyl)-5-{[4-(trifluoromethoxy)phenyl]sulfonyl}pyridine-2-carboxamide]	74.9%	6.74	25.9%	< 5.00
CC1CCOCC1CNC(=O)c1ncc(S(=O)(=O)c2ccc(OC(F)(F)F)cc2)cc1N (stereo not shown) [Compound 156, 3-amino-N-[(4-methyltetrahydro-2H-pyran-3-yl)methyl]-5-{[4-(trifluoromethoxy)phenyl]sulfonyl}pyridine-2-carboxamide]	94.0%	6.62	63.5%	5.86
COCCNC(=O)c1ncc(S(=O)(=O)c2ccc(C(F)(F)F)cc2)cc1N [Compound 202, 3-amino-N-(2-methoxyethyl)-5-{[4-(trifluoromethyl)phenyl]sulfonyl}pyridine-2-carboxamide]	97.6%	7.34	45.1%	5.80
Nc1cc(S(=O)(=O)c2ccc(C(F)(F)F)cc2)cnc1C(=O)NCC1(O)CC1 [Compound 228, 3-amino-N-[(1-hydroxycyclopropyl)methyl]-5-{[4-(trifluoromethyl)phenyl]sulfonyl}pyridine-2-carboxamide]	123.3%	8.07	62.6%	5.98
CC1(C)CN(C(=O)c2ncc(S(=O)(=O)c3ccc(OC(F)(F)F)cc3F)cc2N)C1 [Compound 134, (3-amino-5-{[2-fluoro-4-(trifluoromethoxy)phenyl]sulfonyl}pyridin-2-yl)(3,3-dimethylazetidin-1-yl)methanone]	101.6%	7.36	76.8%	5.95
Nc1cc(S(=O)(=O)c2ccc(OC(F)(F)F)cc2)cnc1C(=O)N1CC(F)C1 [Compound 67, (3-amino-5-{[4-(trifluoromethoxy)phenyl]sulfonyl}pyridin-2-yl)(3-fluoroazetidin-1-yl)methanone]	110.0%	7.59	73.6%	5.80
Nc1cc(S(=O)(=O)c2ccc(F)cc2)cnc1C(=O)NCCC(O)C(F)(F)F (stereo not shown) [Compound 72, 3-amino-5-[(4-fluorophenyl)sulfonyl]-N-(4,4,4-trifluoro-3-hydroxybutyl)pyridine-2-carboxamide]	89.3%	7.66	44.2%	< 5.48
Nc1cc(S(=O)(=O)c2ccc(OC(F)(F)F)cc2)cnc1C(=O)N1CC[C@H](F)C1 [Compound 206, (3-amino-5-{[4-(trifluoromethoxy)phenyl]sulfonyl}pyridin-2-yl)[(3S)-3-fluoropyrrolidin-1-yl]methanone]	103.0%	7.13	90.3%	5.50
C[C@H](O)CNC(=O)c1nc(-c2ccc(F)cc2)c(S(=O)(=O)C2CCCC2)cc1N [Compound 261, 3-amino-5-(cyclopentanesulfonyl)-6-(4-fluorophenyl)-N-[(2S)-2-hydroxypropyl]pyridine-2-carboxamide]	87.3%	6.79	16.6%	< 6.00
CO[C@H]1CCC[C@@H]1NC(=O)c1ncc(S(=O)(=O)c2ccc(C(F)(F)F)cc2)cc1N [Compound 293, 3-amino-N-[(1S,2S)-2-methoxycyclopentyl]-5-{[4-(trifluoromethyl)phenyl]sulfonyl}pyridine-2-carboxamide]	87.8%	6.87	40.8%	< 5.48

The remaining lines, values ahead:

% Activation [1]	pEC50 [1]	% Activation [2]	pEC50 [2]	Compound
109.7%	8.25	75.8%	6.49	CC(C)(O)C1CN(C(=O)c2ncc(S(=O)(=O)c3ccc(C(F)(F)F)cc3F)cc2N)C1 [Compound 178, (3-amino-5-{[2-fluoro-4-(trifluoromethyl)phenyl]sulfonyl}pyridin-2-yl)[3-(2-hydroxypropan-2-yl)azetidin-1-yl]methanone]
90.6%	7.70	61.4%	5.88	C[C@H]1CCCN1S(=O)(=O)c1cnc(C(=O)NCC(O)C(F)(F)F)c(N)c1 (stereo partly drawn) [Compound 181, 3-amino-5-{[(2S)-2-methylpyrrolidin-1-yl]sulfonyl}-N-(3,3,3-trifluoro-2-hydroxypropyl)pyridine-2-carboxamide]
105.5%	7.39	69.0%	5.89	Nc1cc(S(=O)(=O)c2ccc(OC(F)(F)F)cc2)cnc1C(=O)NCCC1OCCO1 [Compound 147, 3-amino-N-[2-(1,3-dioxolan-2-yl)ethyl]-5-{[4-(trifluoromethoxy)phenyl]sulfonyl}pyridine-2-carboxamide]
98.7%	7.58	61.8%	5.90	Nc1cc(S(=O)(=O)N2CCC(F)CC2)cnc1C(=O)NCC(O)C(F)(F)F (stereo not shown) [Compound 195, 3-amino-5-[(4-fluoropiperidin-1-yl)sulfonyl]-N-(3,3,3-trifluoro-2-hydroxypropyl)pyridine-2-carboxamide]
11.9%	< 5.70	1.4%	< 5.00	Nc1cc(S(=O)(=O)c2ccc(C(F)(F)F)cc2)cnc1C(=O)N1CCC[C@H]1CO [Compound 226, (3-amino-5-{[4-(trifluoromethyl)phenyl]sulfonyl}pyridin-2-yl)[(2S)-2-(hydroxymethyl)pyrrolidin-1-yl]methanone]
99.7%	6.80	11.7%	< 5.00	CC(C)(C)CNC(=O)c1ncc(S(=O)(=O)c2ccc(C(F)(F)F)cc2)cc1N [Compound 191, 3-amino-N-(2,2-dimethylpropyl)-5-{[4-(trifluoromethyl)phenyl]sulfonyl}pyridine-2-carboxamide]
111.0%	8.16	66.4%	6.41	CC1CCN(S(=O)(=O)c2cnc(C(=O)NCC(O)C(F)(F)F)c(N)c2)CC1 (stereo not shown) [Compound 184, 3-amino-5-[(4-methylpiperidin-1-yl)sulfonyl]-N-(3,3,3-trifluoro-2-hydroxypropyl)pyridine-2-carboxamide]
103.7%	7.68	42.0%	5.95	Nc1cc(S(=O)(=O)N2CCCC(F)(F)C2)cnc1C(=O)NCC(O)C(F)(F)F (stereo not shown) [Compound 183, 3-amino-5-[(3,3-difluoropiperidin-1-yl)sulfonyl]-N-(3,3,3-trifluoro-2-hydroxypropyl)pyridine-2-carboxamide]
101.0%	7.40	21.3%	< 5.00	CC(C)C(CO)NC(=O)c1ncc(S(=O)(=O)c2ccc(OC(F)(F)F)cc2)cc1N (stereo not shown) [Compound 13, 3-amino-N-(1-hydroxy-3-methylbutan-2-yl)-5-{[4-(trifluoromethoxy)phenyl]sulfonyl}pyridine-2-carboxamide]
92.0%	6.89	54.0%	5.74	Nc1cc(S(=O)(=O)c2ccc(OC(F)(F)F)cc2)cnc1C(=O)N1CC2(COC2)C1 [Compound 68, (3-amino-5-{[4-(trifluoromethoxy)phenyl]sulfonyl}pyridin-2-yl)(2-oxa-6-azaspiro[3.3]hept-6-yl)methanone]
107.0%	8.11	44.8%	5.88	C[C@H](O)CNC(=O)c1ncc(S(=O)(=O)N(C)Cc2ccc(F)cc2)cc1N [Compound 269, 3-amino-5-[(4-fluorobenzyl)(methyl)sulfamoyl]-N-[(2S)-2-hydroxypropyl]pyridine-2-carboxamide]
